Results published in patent publication US12377044B2, “Method and device for transdermal delivery of parathyroid hormone using a microprojection array” (Panther Life Sciences Corporation, priority 2010, dated 2025).

Assay: clinical
Details: female, human, in vivo, sc, 20 ug
Description: The microprojection array described herein was used to administer transdermally hPTH (1-34) to healthy human subjects. As a comparator, hPTH (1-34) was also administered subcutaneously to a healthy group of human subjects.
In this study, a microprojection array was prepared as detailed in Example 9 and inserted into an applicator-array assembly to form a transdermal delivery system, as described in Example 10. […] The delivery system was designed to deliver a systemic dose of hPTH (1-34) across the stratum corneum barrier layer of the skin upon activation of the applicator to deploy an array of microstructures causing the array of microstructures to penetrate the stratum corneum. In this study, two dose levels were administered via the transdermal delivery system, 32 μg hPTH (1-34) and 64 μg hPTH (1-34) (32 μg hPTH (1-34)×2). Subjects received these doses by applying the transdermal microneedle delivery system MicroCor® device containing the indicated amount of hPTH in the distal tips of the microneedles in the array to an abdominal site, and leaving the device in place for five (5) minutes. The comparator treatment (the commercial hPTH product known as Forteo®) was subcutaneously administered via injection into the abdominal wall at a dose of 20 μg. Blood samples were drawn at designated times and analyzed for hPTH concentration. […]

For `CC[C@H](C)[C@H](NC(=O)[C@H](CCC(=O)O)NC(=O)[C@H](CO)NC(=O)[C@@H](NC(=O)[C@@H](N)CO)C(C)C)C(=O)N[C@@H](CCC(N)=O)C(=O)N[C@@H](CC(C)C)C(=O)N[C@@H](CCSC)C(=O)N[C@@H](Cc1cnc[nH]1)C(=O)N[C@@H](CC(N)=O)C(=O)N[C@@H](CC(C)C)C(=O)NCC(=O)N[C@@H](CCCCN)C(=O)N[C@@H](Cc1cnc[nH]1)C(=O)N[C@@H](CC(C)C)C(=O)N[C@@H](CC(N)=O)C(=O)N[C@@H](CO)C(=O)N[C@@H](CCSC)C(=O)N[C@@H](CCC(=O)O)C(=O)N[C@@H](CCCN=C(N)N)C(=O)N[C@H](C(=O)N[C@@H](CCC(=O)O)C(=O)N[C@@H](Cc1c[nH]c2ccccc12)C(=O)N[C@@H](CC(C)C)C(=O)N[C@@H](CCCN=C(N)N)C(=O)N[C@@H](CCCCN)C(=O)N[C@@H](CCCCN)C(=O)N[C@@H](CC(C)C)C(=O)N[C@@H](CCC(N)=O)C(=O)N[C@@H](CC(=O)O)C(=O)N[C@H](C(=O)N[C@@H](Cc1cnc[nH]1)C(=O)N[C@@H](CC(N)=O)C(=O)N[C@@H](Cc1ccccc1)C(=O)O)C(C)C)C(C)C` [hPTH (1-34), human Parathyroid hormone (1-34)], the half-life was 52 min.
